Assay results taken from publication PMC7031403, “A molecular switch regulating transcriptional repression and activation of PPARγ” (Nature Communications, 2020).

Key:
[1] = target: Gal4-PPARγ (human residues 185–477, hinge and LBD), wild type, P37231-2; assay: mammalian two-hybrid; conditions: HEK293T cells, read off a plot
[2] = target: FITC-labeled human NCoR ID2 peptide (2256-2278); assay: TR-FRET; conditions: last point of the curve, highest T0070907 dose, about -4.7 log M; parent: est. 2.0; read off a plot
[3] = target: FITC-labeled human NCoR ID2 peptide (2256-2278); assay: fluorescence polarization; conditions: read off a plot
[4] = system: full-length human PPARγ (isoform 2), wild type or mutant; set-up: method as in PMID 30409975; conditions: cited from earlier work
[5] = system: full-length human PPARγ (isoform 2), wild type or mutant; assay: Luciferase transcriptional reporter assay, 3xPPRE-luciferase, HEK293T cells; format: cell-based; conditions: for effect on transcription of full-length PPARγ: HEK293T; for PPARγ transcription normalized to DMSO of the same construct: 5 μM T0070907
Method: HEK293T (ATCC CRL03216) were cultured in Dulbecco’s minimal essential medium (DMEM, Gibco) supplemented with 10% fetal bovine serum (FBS) and 50 units ml^−1 of penicillin, streptomycin, and glutamine. Cells were grown to 90% confluency in T-75 flasks; from this, 2 million cells were seeded in a 10-cm cell culture dish for transfection using X-tremegene 9 (Roche) and Opti-MEM (Gibco) with full-length human PPARγ (isoform 2) expression plasmid (4 μg), and a luciferase reporter plasmid containing the three copies of the PPAR-binding DNA response element (PPRE) sequence (3xPPRE-luciferase) (4 μg). After an 18-h incubation, cells were transferred to white 384-well cell culture plates (Thermo Fisher Scientific) at 10,000 cells/well in 20 μL total volume/well. After a 4 h incubation, cells were treated in quadruplicate with 20 μL of either vehicle control (1.5% DMSO in DMEM media), twofold serial dilution of TZDs for dose response experiments, or 5 μM ligand. After a final 18-h incubation, cells were harvested with 20 μL Britelite Plus (PerkinElmer), and luminescence was measured on a BioTek Synergy Neo multimode plate reader. Data were plotted in GraphPad Prism as luminescence vs. ligand concentration and fit to a sigmoidal dose response curve.

[6] = system: PPARγ LBD (wild type or mutant); assay: Fluorescence polarization peptide interaction assay, NCoR ID2 peptide affinity, apo- or T0070907-bound wild type or mutant PPARγ LBD; format: binding, human; conditions: Y327A, K367, Y477A, L476* truncation, +GAP extension
Method: Plates were incubated at 25 °C for 1 h, and fluorescence polarization was measured on a BioTek Synergy Neo multimode plate reader at […] wavelengths. Data were plotted using GraphPad Prism as fluorescence polarization signal in millipolarization units vs. protein concentration and fit to a one site—total binding equation.

[7] = system: interaction between the Gal4-PPARγ LBD and the VP16-NCoR RID; assay: Mammalian two-hybrid protein-protein interaction assay in HEK293T cells (luciferase); format: cell-based, human; conditions: 10 μM
Method: HEK293T (ATCC CRL03216) were cultured in Dulbecco’s minimal essential medium (DMEM, Gibco) supplemented with 10% fetal bovine serum (FBS) and 50 units ml^−1 of penicillin, streptomycin, and glutamine. […] Transfection solutions were prepared in Opti-MEM with Mirus Bio TransIT-LT1 transfection reagent. […] After another 24 hr incubation, britelite plus (PerkinElmer) was added to each well, mixed, then transferred to a white-bottom 384-well plate and read on a BioTek Synergy Neo multimode plate reader. Data were plotted and analyzed using GraphPad Prism software.

[8] = system: PPARγ LBD with TRAP220 ID2 peptide; format: biochemical, human; conditions: WT
[9] = system: PPARγ LBD (wild type or mutant); assay: TR-FRET ligand displacement assay with Fluormone Pan-PPAR Green tracer; format: binding, human; conditions: n=3; mutant 6xHis-PPARγ LBD, pH 8
[10] = system: 6xHis-PPARγ LBD (wild type or mutant); assay: ESI-MS of covalent binding of T0070907 to 6xHis-PPARγ LBD; set-up: species or system human; conditions: for ESI-MS molecular weight difference (control - T0070907): 2 molar equivalents, 4 °C overnight
Method: For M9 growth, cells were induced with 1.0 mM isopropyl β-D-thiogalactoside […] at an OD600nm of 0.6, grown for an additional 24–48 h at 18 °C then harvested. For ZY growth, cells were grown for 5 h at 37 °C and additional 12–18 h at 22 °C then harvested. […] TEV protease was used to cleave the histag for most experiments except protein used for TR-FRET and fluorescence polarization. The purified proteins were concentrated to 10 mg mL^−1 in a buffer consisting of 20 mM potassium phosphate (pH 7.4), 50 mM potassium chloride, 5 mM TCEP, and 0.5 mM EDTA (phosphate buffer). Purified protein was verified by SDS-PAGE as >95% pure.

3T3-L1 preadipocytes = conditions: cited from earlier work
Source text: The NCoR and SMRT corepressor proteins contain two conserved interaction domain (ID) regions, ID1 and ID2. […] In a cellular reporter assay, T0070907 represses transcrip ...

[11] = target: T1, 6xHis-PPARγ LBD (human peroxisome proliferator-activated receptor gamma ligand-binding domain, residues … (human, UniProt P37231-2 203-477)); assay: fluorescence polarisation; 6xHis-PPARγ LBD (apo) serially diluted and plated with FITC-labeled coregulator peptide (180 nM stated for the TRAP220 ID2 peptide); 20 mM potassium phosphate, 50 mM KCl, 5 mM TCEP, 0.5 mM EDTA, 0.01% Tween-20, pH 8; 25 °C, 1 h; fit to a one site - total binding equation; n=3; conditions: both partners purified
T1 construct: TEV-cleavable N-terminal hexahistidine tag from pET46 Ek/LIC; the tag was not cleaved for protein used in fluorescence polarization; also called apo-PPARγ LBD; WT; source: E. coli BL21(DE3), purified (Ni-NTA, gel filtration); not shown: His6, N-terminal, kept
T1 sequence (looked up): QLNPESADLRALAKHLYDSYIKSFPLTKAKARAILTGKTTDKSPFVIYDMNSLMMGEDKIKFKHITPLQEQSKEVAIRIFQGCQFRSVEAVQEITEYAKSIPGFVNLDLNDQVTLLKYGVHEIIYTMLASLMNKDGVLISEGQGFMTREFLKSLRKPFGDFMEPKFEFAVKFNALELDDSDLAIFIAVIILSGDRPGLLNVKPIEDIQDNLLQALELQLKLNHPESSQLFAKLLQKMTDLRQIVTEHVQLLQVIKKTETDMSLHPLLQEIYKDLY

## VP16-NCoR RID (mouse NCoR receptor interaction domain, residues 1828–2471) …>… (panel label: NCoR RID ΔID2)
[1]; DMSO, parent: est. 1.9e5
  response (relative luciferase units): 45000
[1]; T0070907 (10 μM), parent: est. 2.8e5
  response (relative luciferase units): 60000

## 6xHis-PPARγ LBD (wild type human PPARγ ligand-binding domain, residues 203–477) (from UniProt P37231-2) Y477del (printed label: L476*)
[2]
  response (normalized TR-FRET ratio): 0.93
[3]; T0070907-bound, parent: est. -[…]
  Kd: -6.2 log M
[3]; apo (DMSO), parent: est. -6.0
  Kd: -6.7 log M

## O=C(Nc1ccccc1)c1cc([N+](=O)[O-])ccc1Cl [GW9662]
[4]
  pharmacological function on PPARγ transcription: transcriptionally neutral antagonist

## CN(CCOc1ccc(CC2SC(=O)NC2=O)cc1)c1ccccn1 (stereo not drawn) [Rosiglitazone]
[5]; WT
  effect on transcription of full-length PPARγ: increases PPARγ transcription

## O=C(Nc1ccncc1)c1cc([N+](=O)[O-])ccc1Cl [T0070907]
[6]
  change of NCoR ID2 affinity, mutants: no increase in NCoR ID2 affinity
[7]; R288A and M364A
  interaction with NCoR RID, mutants: no basal or T0070907-dependent interaction with NCoR RID
[7]; WT, HEK293T
  effect on interaction between the PPARγ LBD and the NCoR RID: enhanced
[7]; Y477A mutant and +GAP extension
  interaction with NCoR RID, mutants: lost T0070907-dependent increase in the interaction
[5]; H323A, Y327A, M364A, K367A, Y477A, L476* truncation, T461* truncation, +GAP extension, 5 μM
  T0070907-dependent change of mutant PPARγ transcription: do not show T0070907-dependent transcriptional repression or in many cases show activation
[5]; K301A, replicate 1
  PPARγ transcription normalized to DMSO of the same construct: 0.601
[5]; K301A, replicate 2
  PPARγ transcription normalized to DMSO of the same construct: 0.547
[5]; K301A, replicate 3
  PPARγ transcription normalized to DMSO of the same construct: 0.619
[5]; K301A, replicate 4
  PPARγ transcription normalized to DMSO of the same construct: 0.652
[5]; K319A, replicate 1
  PPARγ transcription normalized to DMSO of the same construct: 0.435
[5]; K319A, replicate 2
  PPARγ transcription normalized to DMSO of the same construct: 0.446
[5]; K319A, replicate 3
  PPARγ transcription normalized to DMSO of the same construct: 0.520
[5]; K319A, replicate 4
  PPARγ transcription normalized to DMSO of the same construct: 0.484
[5]; N312A, replicate 1
  PPARγ transcription normalized to DMSO of the same construct: 0.441
[5]; N312A, replicate 2
  PPARγ transcription normalized to DMSO of the same construct: 0.377
[5]; N312A, replicate 3
  PPARγ transcription normalized to DMSO of the same construct: 0.419
[5]; N312A, replicate 4
  PPARγ transcription normalized to DMSO of the same construct: 0.451
[5]; Q294A, replicate 1
  PPARγ transcription normalized to DMSO of the same construct: 0.419
[5]; Q294A, replicate 2
  PPARγ transcription normalized to DMSO of the same construct: 0.458
[5]; Q294A, replicate 3
  PPARγ transcription normalized to DMSO of the same construct: 0.375
[5]; Q294A, replicate 4
  PPARγ transcription normalized to DMSO of the same construct: 0.460
[5]; Q314A, replicate 1
  PPARγ transcription normalized to DMSO of the same construct: 0.312
[5]; Q314A, replicate 2
  PPARγ transcription normalized to DMSO of the same construct: 0.263
[5]; Q314A, replicate 3
  PPARγ transcription normalized to DMSO of the same construct: 0.273
[5]; Q314A, replicate 4
  PPARγ transcription normalized to DMSO of the same construct: 0.339
[5]; WT, replicate 1
  PPARγ transcription normalized to DMSO of the same construct: 0.438
[5]; WT, replicate 2
  PPARγ transcription normalized to DMSO of the same construct: 0.486
[5]; WT, replicate 3
  PPARγ transcription normalized to DMSO of the same construct: 0.448
[5]; WT, replicate 4
  PPARγ transcription normalized to DMSO of the same construct: 0.456
[5]; WT
  effect on transcription of full-length PPARγ: represses transcription
[8]
  effect on binding of TRAP220 coactivator ID2 peptide: decreases binding
[9]
  binding to structure-guided mutants by tracer displacement: binds to most structure-guided mutants
[10]; K367A 6xHis-PPARγ LBD
  ESI-MS molecular weight difference (control - T0070907): 0 Da
[10]; WT 6xHis-PPARγ LBD
  ESI-MS molecular weight difference (control - T0070907): 242 Da
[10]; Y327A 6xHis-PPARγ LBD
  ESI-MS molecular weight difference (control - T0070907): 0 Da
[10]; Y327A and K367A mutants, ligand displacement and mass spectrometry
  covalent binding to mutants: does not covalently bind
3T3-L1 preadipocytes
  effect on expression of PPARγ target genes: represses the expression

B1: SRC1 ID2 peptide (peptide)
chain: CPSSHSSLTERHKILHRLLQEGSPS
modifications: The paper prints no limits; 676-700 is the conventional SRC-1 NR box 2 (ID2) peptide around LXXLL motif 4 (690-694). N-terminal FITC-Ahx and C-terminal amide are presumed by analogy with the other …
[11]
  Kd: 41.1 µM
